Consider five compounds from publication PMC10974768 (Toxins, 2024).

For orientation: IC50 means the concentration at which inhibition is half-maximal. As usually defined, the Tmax is the time at which the peak concentration occurs. By Cmax is commonly meant the highest concentration seen after dosing. The MRT is a mean duration of stay, worked out from the concentration-time curve. The Km is the substrate concentration at which the rate is half of its maximum. In general, Vmax refers to the rate approached at saturating substrate.

SMILES strings stand for the structures. “And” between values parts separate entries of the source, which are not always exact repeats. Identical values can stand only once. Like-named read-outs stand apart in the source and are kept apart here.

Series [1] relates to CYP2A6. The series can be described thus: in vitro. The note with it: read-out: IC50 for CYP2A6. The procedure: (§1) A cocktail-approach for elucidating the metabolites profiling and CYP450 inhibition was conducted as in Lin et al. with minor changes. The incubation mixture contained 50 μL of 0.2 mg/mL of CLM, 10 μL of 0.1 M phosphate buffer (pH 7.4), 40 μL of 1 mM NADPH and six probe substrates with a total volume of 200 μL. The specific probe substrates used for each CYP450 isoenzyme in the incubation mixture were as follows: PH (CYP1A2), BP (CYP2B6), CLN (CYP2E1), TBD (CYP2C9), CAN (CYP2A6), and MDZ (CYP3A4). Probes substrates were dissolved in methanol as stock solution (1 mg/mL). All of them were diluted to the final concentrations (see Supplemental Materials) with incubation buffer and the percentage of organic solvent in the final incubation volume was below 1% (v/v). Briefly, the mixture was preincubated in a thermoshaker (Biosan, Geraardsbergen, Belgium) for 5 min at 37 °C prior to the initiation of the reaction with NADPH.4Na. After incubation, the mixture was terminated by 400 μL ice-cold acetonitrile. […] A volume of 5 µL of supernatant was analysed using UHPLC-MS/MS.

The test system of series [2] is CYP450 in chicken liver microsomes. Description: in vitro. The following applies: read-out: IC50 values in chicken liver microsomes (all CYP450 isoforms tested). The procedure:
as §1
On the technique in general: Liver microsomes are a subcellular fraction often used to study metabolism.

Details of series [3]: species or system broiler chickens (Ross 308). The following applies: in vivo.
Series [4] deals with broilers. The note with it: in vivo.
For series [5] the following is noted: in vivo, 5 mg/kg; cited from earlier work.
The conditions of series [6]: in vivo, cited from earlier work.
The conditions of series [7]: rat, in vivo, po, cited from earlier work.
The conditions of series [8]: in vivo, po; cited from earlier work.
Series [9] has as its system CYP2A6. The note with it: read-out: Km of CYP2A6; turkey; CAN as substrate; cited from earlier work.
Series [10] concerns CYP1A2 (PH), CYP2B6 (BP), CYP2E1 (CLN), CYP2C9 (TBD), CYP2A6 (CAN), CYP3A4 (MDZ). The series can be described thus: in vitro. The note with it: chicken, pH 7.4. The procedure:
as §1, with “The incubation mixture contained 50 μL of 0.2 mg/mL of CLM, 10 μL of 0.1 M phosphate buffer (pH 7.4), 40 μL of 1 mM NADPH and six probe substrates with a total volume of 200 μL. The specific probe substrates used for each CYP450 isoenzyme in the incubation mixture were as follows: PH (CYP1A2), BP (CYP2B6), CLN (CYP2E1), TBD (CYP2C9), CAN (CYP2A6), and MDZ (CYP3A4).” left out
(§2) Enzyme kinetic studies were conducted for the six CYP450-related probes reactions. For each probe, the maximum rate of the Vmax and Km were obtained using GraphPad Prism v.8.0.2 software via Michaelis-Menten Kinetic model (La Jolla, CA, USA). The incubation times of 5, 10, 15, 30, 45 and 60 min were tested individually. A series of protein concentrations (0.05, 0.1, 0.2, 0.4, 0.6, 0.8 and 1 mg/mL) of CLM in the incubation mixture were conducted. Triplicate analyses were performed for each incubation system.

For series [11], the system named is chicken liver microsomes (CYP450). The series can be described thus: in vitro. The procedure:
as §1, with “The incubation mixture contained 50 μL of 0.2 mg/mL of CLM, 10 μL of 0.1 M phosphate buffer (pH 7.4), 40 μL of 1 mM NADPH and six probe substrates with a total volume of 200 μL. The specific probe substrates used for each CYP450 isoenzyme in the incubation mixture were as follows: PH (CYP1A2), BP (CYP2B6), CLN (CYP2E1), TBD (CYP2C9), CAN (CYP2A6), and MDZ (CYP3A4).” left out
as §2

The subject of series [12] is CYP1A2, CYP3A4. The following applies: cited from earlier work.

For `COc1cc2c(c3oc(=O)c4c(c13)CCC4=O)[C@@H]1C=CO[C@@H]1O2` [AFB1, aflatoxin B1], the IC50 in [1] worked out at 24.1 µM. Besides, in series [2], the IC50 is above 7.6 µM. Besides, in [3], the “AUCINF_obs, Control” value was 94.2 ± 40.4 ** h·ng/mL; the “AUCINF_obs, Treatment” value worked out at 265.8 ± 222.9 ng·h/mL; the “AUClast, Control” value is listed as 87.5 ± 39.6 ** h·ng/mL; the “AUClast, Treatment” value stood at 170 ± 103.6 ng·h/mL. Besides, in [3], the “CL_F_obs, Control” value came out at 238 ± 112 mL/min/kg; the “CL_F_obs, Treatment” value amounted to 157 ± 108 mL/min/kg; the “Cmax, Control” value was 29.3 ± 3.2 ng/mL; the “MRTlast, Control” value is reported as 4.7 ± 0.7 h. For the same compound, in series [3], the “MRTlast, Treatment” value was 6.4 ± 3.2 h; the “T1/2λz, Treatment” value is 1.4 ± 0.5 h; the “Tmax, Treatment” value amounted to 0.3 ± 0.1 h; the “Vd_F_obs, Control” value turned out to be 14.8 ± 4.8 L/kg. In series [3], the “Vd_F_obs, Treatment” value is 18.4 ± 7.7 L/kg; the “increase of AUClast of AFB1 by TIA” value stood at 194%; the “increase of mean residence time (MRT) of AFB1 by TIA” value worked out at 136%. Besides, the “adverse health effects in broilers” value in [4] is “No significant adverse health effects”. The “time for depletion in chicken liver, kidney, and muscle” value in series [5] was 10 to 19 days. For the same compound, in series [6] (human), the “AUC0–t” value was 0.0256 ± 0.0063 ng·h/mL, the T1/2β is given as 64.4 h and the Tmax is 1.02 ± 0.31 h. Further, in series [6], the T1/2α was 2.86 h. Also, in [7] (1 mg/kg), the “AUC0–24” value is 45.59 ± 17.19 ng·h/mL; the CL was 372.2 ± 163 mL/min/kg; the Cmax was 93.42 ± 23.01 ng/mL and 90 ± 20 ng/mL; the Tmax result is reported as “about 0.15 h”. Moreover, in series [7] (1 mg/kg), the Vd is 226.46 ± 100.76 L/kg. Also, the T1/2e in [7] was 7.62 h. In addition, in series [8], the Cmax is 3.8 ± 0.9 ng/mL, the MRT is reported as 11.73 ± 0.94 h, the T1/2e is given as 15.52 ± 0.51 h and the Tmax was 0.58 ± 0.17 h.

Regarding `O=c1ccc2ccccc2o1` [Coumarin], the Km was 33.6 ± 8.52 µM in series [9], 56.1 µM in [10] (broiler) and 56.1 µM in series [10]. Moreover, the Vmax in series [11] (chicken liver microsomes, Michaelis-Menten, PH (CYP1A2), BP (CYP2B6), CLN (CYP2E1), TBD (CYP2C9), CAN (CYP2A6), MDZ (CYP3A4), n = 3) worked out at 190.8 nmol/min/mg.

Take `Cc1ncc2n1-c1ccc(Cl)cc1C(c1ccccc1F)=NC2` [Midazolam]: the Km in series [10] (broiler) was 3.3 µM; in series [10], 3.31 µM. In addition, in [11], the Vmax amounted to 37.7 nmol/min/mg.

Consider `CCOc1ccc(NC(C)=O)cc1` [Phenacetin], for which the Km in series [12] is 98.1 ± 18.6 µM; in series [10] (broiler), 20.7 µM; in [10], 20.7 µM. For the same compound, in series [11], the maximum rate (Vmax) stood at 63.1 nmol/min/mg.

As for `CCCCNC(=O)NS(=O)(=O)c1ccc(C)cc1` [Tolbutamide], the Vmax in [11] stood at 159.4 nmol/min/mg.
